Entries after “also recorded” stand apart in the source; their conditions may differ.
Test system: subjects with mIDH1 advanced AML
Assay: Phase I study: safety and tolerability (TEAE, DLT, MTD, ECG)
Assay type: in vivo
Description: This study was an open-label, nonrandomized, multicenter phase I trial. Subjects were screened at 13 hospital sites in 2 countries (USA and Germany). The study was to consist of dose-escalation followed by dose-expansion. The MTD identified in dose-escalation was to be used in the dose-expansion. If MTD was not reached in dose-escalation, a dose for the expansion would be selected based on available PK, pharmacodynamic, safety, and efficacy data. BAY1436032 was administered twice-daily (BID) in continuous 28-day cycles. In dose-escalation, up to 9 evaluable subjects could be enrolled per cohort, with a minimum of 3 dose-limiting toxicity (DLT)-free evaluable subjects required prior to escalating to the next highest dose. Bayesian dose-DLT modeling was performed to help guide dosing decisions.
DLTs were differentially defined for nonhematopoietic versus hematopoietic toxicities. Nonhematopoietic toxicities of ≥grade 3 occurring during the first cycle of treatment were to be considered DLTs with the following exceptions: (1) Alopecia and nausea controlled by medical management; (2) Tumor lysis syndrome if successfully managed clinically and resolved within 7 days without any end-organ damage; (3) Differentiation syndrome (DS) if successfully managed clinically and resolved within 7 days without any end-organ damage; (4) Asymptomatic ≥grade 3 electrolyte abnormalities not considered clinically significant by the investigator. […] For certain toxicities such as laboratory assessments without a clear clinical correlate, a discussion between the investigator and the sponsor determined whether the adverse event (AE) should be assessed as a DLT.
DLTs identified during the first cycle of treatment were used to guide dose-escalation decisions and to determine the MTD, and if safety issues appeared in subsequent cycles they were also to be considered. Hydroxyurea was permitted during the first cycle if white blood cell (WBC) exceeded 20 × 10^9/L and was also permitted for treatment of DS.
Safety and tolerability were evaluated by analysis of adverse events, physical examinations, vital signs, ECOG performance status, and various laboratory assessments. For safety monitoring, subjects were scheduled for clinic visits every week for the initial three cycles of treatment, after which time visits could be reduced to every-other-week with investigator and sponsor agreement. Cardiac function was assessed with triplicate 12-lead electrocardiograms (ECG) at screening, C1-D1, C1-D2, C1-D15, D1 of every subsequent cycle, and at treatment end. […] AEs are presented by the Medical Dictionary for Regulatory Activities (MedDRA) v21.1.

SMILES: C[C@H]1C[C@@H](n2c(Nc3ccc(OC(F)(F)F)cc3)nc3cc(CCC(=O)O)ccc32)CC(C)(C)C1 [BAY1436032]
- TEAE Sepsis Grade 5 (1500 mg BID, n=9): 1
- TEAE Sinus tachycardia Grade 1 (1500 mg BID, n=9): 1
- TEAE Thrombocytopenia Grade 4 (1500 mg BID, n=9): 2
- TEAE Vomiting Grade 1 (1500 mg BID, n=9): 3
- TEAE Weight decreased Grade 1 (1500 mg BID, n=9): 0
- TEAE Weight decreased Grade 2 (1500 mg BID, n=9): 0
- TEAE Weight decreased Grade 3 (1500 mg BID, n=9): 1
- Deaths during treatment or within 30 days of discontinuation (27 treated): Six of 27
- Related TEAE DS grade 3 (27 treated): single subject
- Related TEAE Fatigue Grade 3 (27 treated): single subject
- Related TEAE amylase increase grade 3 (27 treated): single subject
- Related TEAE anemia grade 4 (27 treated): single subject
- Related TEAE decreased WBC count grade 3 (27 treated): single subject
- Related TEAE decreased neutrophil count grade 4 (27 treated): single subject
- Related TEAE decreased platelet count grade 4 (27 treated): single subject
- Related TEAE febrile neutropenia grade 3 (27 treated): single subject
- Related TEAE hyponatremia grade 3 (27 treated): single subject
- Related TEAE ileus grade 4 (27 treated): single subject
- Related TEAE lung infiltration grade 3 (27 treated): single subject
- Related TEAE peripheral edema grade 3 (27 treated): single subject
- Related TEAE pneumonitis grade 3 (27 treated): single subject
- Related TEAE sepsis grade 4 (27 treated): single subject
- Subjects with DS or symptoms associated with DS (27 treated): 19%
- Subjects with at least 1 TEAE of any grade related to BAY1436032 (27 treated): Seventeen of 27
- Subjects with at least 1 TEAE of ≥grade 3 related to BAY1436032 (27 treated): Seven of 27
- Subjects with at least 1 TEAE ≥ grade 3 irrespective of relationship (27 treated): Twenty-four
- Maximum tolerated dose (300 to 1500 mg BID): not identified; also recorded: No MTD was identified
- Related TEAE Decreased appetite Grade 1 (Total, n=27): 1 (4) n (%)
- Related TEAE Decreased appetite Grade 2 (Total, n=27): 1 (4) n (%)
- Related TEAE Diarrhea Grade 2 (Total, n=27): 2 (7) n (%)
- Related TEAE Differentiation syndrome Grade 2 (Total, n=27): 1 (4) n (%)
- Related TEAE Differentiation syndrome Grade 3 (Total, n=27): 1 (4) n (%)
- Related TEAE Dyspnea Grade 1 (Total, n=27): 2 (7) n (%)
- Related TEAE Dyspnea Grade 2 (Total, n=27): 1 (4) n (%)
- Related TEAE Fatigue Grade 1 (Total, n=27): 1 (4) n (%)
- Related TEAE Fatigue Grade 2 (Total, n=27): 2 (7) n (%)
- Related TEAE Fatigue Grade 3 (Total, n=27): 1 (4) n (%)
- Related TEAE Hypomagnesaemia Grade 1 (Total, n=27): 2 (7) n (%)
- Related TEAE Nausea Grade 1 (Total, n=27): 4 (15) n (%)
- Related TEAE Nausea Grade 2 (Total, n=27): 1 (4) n (%)
- Related TEAE Sinus tachycardia Grade 1 (Total, n=27): 2 (7) n (%)
- Related TEAE Vomiting Grade 1 (Total, n=27): 4 (15) n (%)
- TEAE Abdominal pain upper Grade 1 (Total, n=27): 2 (7) n (%)
- TEAE Abdominal pain upper Grade 2 (Total, n=27): 1 (4) n (%)
- TEAE Acute kidney injury Grade 1 (Total, n=27): 1 (4) n (%)
- TEAE Acute kidney injury Grade 2 (Total, n=27): 1 (4) n (%)
- TEAE Acute kidney injury Grade 3 (Total, n=27): 1 (4) n (%)
- TEAE Anaemia Grade 3 (Total, n=27): 4 (15) n (%)
- TEAE Anaemia Grade 4 (Total, n=27): 1 (4) n (%)
- TEAE Anxiety Grade 1 (Total, n=27): 2 (7) n (%)
- TEAE Anxiety Grade 2 (Total, n=27): 1 (4) n (%)
- TEAE Arthralgia Grade 1 (Total, n=27): 1 (4) n (%)
- TEAE Arthralgia Grade 2 (Total, n=27): 2 (7) n (%)
- TEAE Constipation Grade 1 (Total, n=27): 4 (15) n (%)
- TEAE Constipation Grade 2 (Total, n=27): 1 (4) n (%)
- TEAE Contusion Grade 1 (Total, n=27): 3 (11) n (%)
- TEAE Contusion Grade 2 (Total, n=27): 1 (4) n (%)
- TEAE Cough Grade 1 (Total, n=27): 3 (11) n (%)
- TEAE Cough Grade 2 (Total, n=27): 2 (7) n (%)
- TEAE Decreased appetite Grade 1 (Total, n=27): 5 (19) n (%)
- TEAE Decreased appetite Grade 2 (Total, n=27): 3 (11) n (%)
- TEAE Decreased appetite Grade 3 (Total, n=27): 1 (4) n (%)
- TEAE Diarrhea Grade 1 (Total, n=27): 7 (26) n (%)
- TEAE Diarrhea Grade 2 (Total, n=27): 3 (11) n (%)
- TEAE Dry skin Grade 1 (Total, n=27): 5 (19) n (%)
- TEAE Dyspnoea Grade 1 (Total, n=27): 4 (15) n (%)
- TEAE Dyspnoea Grade 2 (Total, n=27): 2 (7) n (%)
- TEAE Dyspnoea Grade 3 (Total, n=27): 3 (11) n (%)
- TEAE Epistaxis Grade 1 (Total, n=27): 3 (11) n (%)
- TEAE Epistaxis Grade 2 (Total, n=27): 2 (7) n (%)
- TEAE Epistaxis Grade 3 (Total, n=27): 1 (4) n (%)
- TEAE Fall Grade 1 (Total, n=27): 4 (15) n (%)
- TEAE Fatigue Grade 1 (Total, n=27): 4 (15) n (%)
- TEAE Fatigue Grade 2 (Total, n=27): 4 (15) n (%)
- TEAE Fatigue Grade 3 (Total, n=27): 3 (11) n (%)
- TEAE Febrile neutropenia Grade 3 (Total, n=27): 7 (26) n (%)
- TEAE General physical health deterioration Grade 3 (Total, n=27): 2 (7) n (%)
- TEAE General physical health deterioration Grade 5 (Total, n=27): 1 (4) n (%)
- TEAE Gingivitis Grade 1 (Total, n=27): 3 (11) n (%)
- TEAE Haematuria Grade 1 (Total, n=27): 2 (7) n (%)
- TEAE Haematuria Grade 2 (Total, n=27): 1 (4) n (%)
- TEAE Haematuria Grade 3 (Total, n=27): 1 (4) n (%)
- TEAE Headache Grade 1 (Total, n=27): 1 (4) n (%)
- TEAE Headache Grade 2 (Total, n=27): 2 (7) n (%)
- TEAE Headache Grade 3 (Total, n=27): 1 (4) n (%)
- TEAE Hyperkalaemia Grade 1 (Total, n=27): 2 (7) n (%)
- TEAE Hyperkalaemia Grade 4 (Total, n=27): 1 (4) n (%)
- TEAE Hypertension Grade 2 (Total, n=27): 2 (7) n (%)
- TEAE Hypertension Grade 3 (Total, n=27): 1 (4) n (%)
- TEAE Hyperuricaemia Grade 1 (Total, n=27): 4 (15) n (%)
- TEAE Hyperuricaemia Grade 3 (Total, n=27): 1 (4) n (%)
- TEAE Hypokalaemia Grade 1 (Total, n=27): 3 (11) n (%)
- TEAE Hypokalaemia Grade 2 (Total, n=27): 1 (4) n (%)
- TEAE Hypokalaemia Grade 3 (Total, n=27): 2 (7) n (%)
- TEAE Hyponatraemia Grade 1 (Total, n=27): 2 (7) n (%)
- TEAE Hyponatraemia Grade 3 (Total, n=27): 1 (4) n (%)
- TEAE Hypophosphataemia Grade 1 (Total, n=27): 1 (4) n (%)
- TEAE Hypophosphataemia Grade 2 (Total, n=27): 2 (7) n (%)
- TEAE Leukocytosis Grade 2 (Total, n=27): 2 (7) n (%)
- TEAE Leukocytosis Grade 3 (Total, n=27): 2 (7) n (%)
- TEAE Lung infection Grade 3 (Total, n=27): 3 (11) n (%)
- TEAE Lung infection Grade 5 (Total, n=27): 1 (4) n (%)
- TEAE Nausea Grade 1 (Total, n=27): 5 (19) n (%)
- TEAE Nausea Grade 2 (Total, n=27): 2 (7) n (%)
- TEAE Nausea Grade 3 (Total, n=27): 2 (7) n (%)
- TEAE Oedema peripheral Grade 1 (Total, n=27): 6 (22) n (%)
- TEAE Oedema peripheral Grade 3 (Total, n=27): 2 (7) n (%)
- TEAE Pain in extremity Grade 1 (Total, n=27): 2 (7) n (%)
- TEAE Pain in extremity Grade 2 (Total, n=27): 1 (4) n (%)
- TEAE Pneumonia Grade 1 (Total, n=27): 1 (4) n (%)
- TEAE Pneumonia Grade 2 (Total, n=27): 2 (7) n (%)
- TEAE Pneumonia Grade 3 (Total, n=27): 3 (11) n (%)
- TEAE Pneumonia fungal Grade 2 (Total, n=27): 1 (4) n (%)
- TEAE Pneumonia fungal Grade 3 (Total, n=27): 1 (4) n (%)
- TEAE Pneumonia fungal Grade 4 (Total, n=27): 1 (4) n (%)
- TEAE Productive cough Grade 1 (Total, n=27): 2 (7) n (%)
- TEAE Productive cough Grade 2 (Total, n=27): 1 (4) n (%)
- TEAE Pyrexia Grade 1 (Total, n=27): 4 (15) n (%)
- TEAE Pyrexia Grade 2 (Total, n=27): 1 (4) n (%)
- TEAE Pyrexia Grade 3 (Total, n=27): 3 (11) n (%)
- TEAE Rash Grade 1 (Total, n=27): 1 (4) n (%)
- TEAE Rash Grade 2 (Total, n=27): 3 (11) n (%)
- TEAE Sepsis Grade 4 (Total, n=27): 3 (11) n (%)
- TEAE Sepsis Grade 5 (Total, n=27): 2 (7) n (%)
- TEAE Sinus tachycardia Grade 1 (Total, n=27): 3 (11) n (%)
- TEAE Thrombocytopenia Grade 4 (Total, n=27): 3 (11) n (%)
- TEAE Vomiting Grade 1 (Total, n=27): 7 (26) n (%)
- TEAE Weight decreased Grade 1 (Total, n=27): 3 (11) n (%)
- TEAE Weight decreased Grade 2 (Total, n=27): 3 (11) n (%)
- TEAE Weight decreased Grade 3 (Total, n=27): 1 (4) n (%)
- Subjects with DS or symptoms associated with DS (count of 27 treated): Five of 27
- Dose-limiting toxicities (grade 4 ileus, subject 21, cohort 4): single DLT
- Clinically significant ECG changes such as QTc prolongation related to treatment (in vivo): no clinically significant ECG
- Deaths attributed to study drug (in vivo): none
- Episodes of ≥grade 3 QT prolongation (in vivo): no episodes
